Measured values: the supplement of paper PMC10883282

Assays:
SW1353 = assay: standardised AUC of viability dose-response curve (72 h) (fraction (0-1)); higher = less growth inhibition (more resistant)
Procedure, shortened: (§1)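 Sarcoma cell lines in 384-well plates were treated in triplicate for 72 h with 2.5 µl of a compound dilution series, made in 1:3 steps from 10 mM to 0.0002 mM on the compound plate. ATPLite viability was scaled from 1 (full) to 0 (none) and fitted per drug and cell line with a four-parameter log-logistic model. The values are standardised areas under the dose-response curve in log-dose space, from a modified drexplorer computeAUC. On that scale, 1 means no response and 0 means full response.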

HS729 = assay: as above
Procedure, shortened: as §1

VA-ES-BJ = assay: as above
Procedure, shortened: as §1

SW872 = assay: as above
Procedure, shortened: as §1

HT1080 [1] = assay: as above
Procedure, shortened: as §1

KHOS-240S = assay: as above
Procedure, shortened: as §1

RD-ES [2] = assay: as above
Procedure, shortened: as §1

KHOS-NP [3] = assay: as above
Procedure, shortened: as §1

MES-SA = assay: as above
Procedure, shortened: as §1

SYO-1 [4] = assay: as above
Procedure, shortened: as §1

SK-ES-1 = assay: as above
Procedure, shortened: as §1

A204 = assay: as above
Procedure, shortened: as §1

SW684 [5] = assay: as above
Procedure, shortened: as §1

SW982 = assay: as above
Procedure, shortened: as §1

SK-LMS-1 = assay: as above
Procedure, shortened: as §1

RD = assay: as above
Procedure, shortened: as §1

G401 = assay: as above
Procedure, shortened: as §1

HT1080 [6] = assay: relative viability vs DMSO control (72 h) (fraction); higher = more viable cells
Procedure, shortened: (§2)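 Sarcoma cell lines were seeded in 384-well plates at densities chosen for 80–90% confluence, then 24 h later given 2.5 µl of serially diluted compound drawn from source plates spanning 10 mM to 0.0002 mM. They were held 72 h at 37 °C, 5% CO2, with 0.1% DMSO vehicle and a 5 µM positive control included. Relative viability was read with ATPLite as percent growth and averaged over up to triplicate wells. Rescaling placed full at 1 and none at 0.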

RD-ES [7] = assay: as above
Procedure, shortened: as §2

KHOS-NP [8] = assay: as above
Procedure, shortened: as §2

SYO-1 [9] = assay: as above
Procedure, shortened: as §2

SW684 [10] = assay: as above
Procedure, shortened: as §2

CN(C)CCCOc1ccc(-c2ccc3ncc4c(c3c2)n(C2CCOCC2)c(=O)n4C)cn1 [AZD-0156]
Details	standardised AUC
A204	0.854
G401	0.963
HS729	0.883
HT1080 [1]	0.991
KHOS-240S	0.914
KHOS-NP [3]	0.975
MES-SA	0.887
RD	0.921
RD-ES [2]	0.785
SK-ES-1	0.748
SK-LMS-1	0.858
SW684 [5]	0.891
SW872	0.749
SW982	0.752
SW1353	0.917
SYO-1 [4]	0.777
VA-ES-BJ	0.753

relative viability
Details	HT1080 [6]	KHOS-NP [8]	RD-ES [7]	SW684 [10]	SYO-1 [9]
0.00017 µM	1.04	1.1	0.944	1.16	1
0.00051 µM	1.1	1.107	1.01	1.17	1.01
0.00152 µM	1.091	1.09	1.03	1.17	0.983
0.00457 µM	1.12	1.1	1	1.19	0.949
0.01372 µM	1.09	1.09	0.861	1.13	0.869
0.04115 µM	1.09	1.088	0.839	1.16	0.891
0.1235 µM	1.07	1.11	0.7218	0.994	0.737
0.3704 µM	1.06	1.09	0.69	0.963	0.701
1.111 µM	1.09	1.03	0.616	0.835	0.534
3.333 µM	1.11	1.02	0.548	0.918	0.526
10 µM	1.026	0.764	0.36	0.788	0.259

COC(=O)c1ccc2c(c1)NC(=O)/C2=C(\Nc1ccc(N(C)C(=O)CN2CCN(C)CC2)cc1)c1ccccc1 [Nintedanib]
relative viability
Details	HT1080 [6]	KHOS-NP [8]	RD-ES [7]	SW684 [10]	SYO-1 [9]
0.00017 µM	1.05	1.06	0.955	1.09	1
0.00051 µM	1.08	1.06	0.96	1.11	0.985
0.00152 µM	1.06	1.06	0.944	1.15	0.971
0.00457 µM	1.06	1.06	0.958	1.12	0.97
0.01372 µM	1.069	1.06	0.945	1.13	0.901
0.04115 µM	1.07	1.06	0.927	1.17	0.713
0.1235 µM	1.06	1.05	0.806	1.13	0.643
0.3704 µM	1.06	1.04	0.73	1.11	0.467
1.111 µM	1.07	1.037	0.706	1	0.369
3.333 µM	1.01	0.982	0.667	0.96	0.292
10 µM	0.084	0.146	0.203	0.422	0.099

Cc1[nH]c(/C=C2\C(=O)Nc3ccccc32)c(C)c1CCC(=O)O [Orantinib]
relative viability
Details	HT1080 [6]	KHOS-NP [8]	RD-ES [7]	SW684 [10]	SYO-1 [9]
0.00017 µM	1.09	1.088	1.02	1.19	1.012
0.00051 µM	1.1	1.122	0.9951	1.19	1.01
0.00152 µM	1.13	1.12	1.01	1.23	1.02
0.00457 µM	1.11	1.12	1.03	1.23	1.02
0.01372 µM	1.08	1.11	1.03	1.18	1.01
0.04115 µM	1.07	1.11	1.02	1.18	1.03
0.1235 µM	1.11	1.11	1.01	1.19	0.997
0.3704 µM	1.09	1.1	1	1.16	0.979
1.111 µM	1.05	1.09	0.977	1.12	0.973
3.333 µM	0.991	1.1	0.983	1.05	0.945
10 µM	0.947	1.08	0.932	0.967	0.799

CC(=O)c1c(C)c2cnc(Nc3ccc(N4CCNCC4)cn3)nc2n(C2CCCC2)c1=O [Palbociclib]
relative viability
Details	HT1080 [6]	KHOS-NP [8]	RD-ES [7]	SW684 [10]	SYO-1 [9]
0.00017 µM	1.09	1.12	0.959	1.19	1.01
0.00051 µM	1.1	1.11	0.9884	1.2	1
0.00152 µM	1.11	1.124	0.98	1.24	1.01
0.00457 µM	1.08	1.1	0.931	1.241	0.9555
0.01372 µM	1.13	1.13	0.917	1.28	0.903
0.04115 µM	1.12	1.12	0.835	1.21	0.8
0.1235 µM	1.16	1.11	0.735	1.18	0.702
0.3704 µM	1.16	1.1	0.652	1.11	0.649
1.111 µM	1.06	1.07	0.603	1.05	0.621
3.333 µM	0.973	0.902	0.563	0.933	0.523
10 µM	0.44	0.742	0.18	0.7226	-0.000667

CN(C)C(=O)c1cc2cnc(Nc3ccc(N4CCNCC4)cn3)nc2n1C1CCCC1 [Ribociclib]
relative viability
Details	HT1080 [6]	KHOS-NP [8]	RD-ES [7]	SW684 [10]	SYO-1 [9]
0.00017 µM	1.08	1.08	0.9605	1.16	0.96
0.00051 µM	1.11	1.07	0.9809	1.16	0.956
0.00152 µM	1.08	1.06	0.959	1.14	0.96
0.00457 µM	1.08	1.07	0.985	1.15	0.937
0.01372 µM	1.05	1.06	0.926	1.13	0.923
0.04115 µM	1.08	1.07	0.9	1.15	0.87
0.1235 µM	1.1	1.07	0.845	1.15	0.814
0.3704 µM	1.09	1.08	0.773	1.14	0.772
1.111 µM	1.12	1.08	0.735	1.17	0.705
3.333 µM	1.09	1.08	0.602	1.1	0.598
10 µM	0.978	1.03	0.546	1.05	0.523

O=C(/C=C\n1cnc(-c2cc(C(F)(F)F)cc(C(F)(F)F)c2)n1)NNc1cnccn1 [Selinexor]
relative viability
Details	HT1080 [6]	KHOS-NP [8]	RD-ES [7]	SW684 [10]	SYO-1 [9]
0.00017 µM	1.11	1.09	0.988	1.14	1.02
0.00051 µM	1.14	1.12	1.02	1.24	1.02
0.00152 µM	1.13	1.131	0.993	1.23	1.02
0.00457 µM	1.11	1.13	0.972	1.25	0.928
0.01372 µM	1.082	1.12	0.949	1.18	0.804
0.04115 µM	1.088	1.05	0.825	1.17	0.63
0.1235 µM	0.814	0.727	0.705	0.953	0.534
0.3704 µM	0.375	0.238	0.602	0.885	0.41
1.111 µM	0.3301	0.184	0.5	0.819	0.25
3.333 µM	0.2689	0.0993	0.3989	0.754	0.136
10 µM	0.2291	0.0794	0.334	0.686	0.0755

Cc1cc(F)c(C(=O)Nc2cccc(-c3nncn3C(C)C)n2)cc1-n1cnc(C2CC2)c1 [Selonsertib]
relative viability
Details	HT1080 [6]	KHOS-NP [8]	RD-ES [7]	SW684 [10]	SYO-1 [9]
0.00017 µM	1.01	1.04	0.972	1.15	0.95
0.00051 µM	1.04	1.05	0.988	1.136	0.947
0.00152 µM	1.04	1.042	0.955	1.14	0.949
0.00457 µM	1.04	1.06	0.983	1.15	0.94
0.01372 µM	1.05	1.06	0.999	1.2	0.95
0.04115 µM	1.04	1.07	1.02	1.14	0.965
0.1235 µM	1.04	1.07	0.983	1.11	0.944
0.3704 µM	1.03	0.911	1.01	1.12	0.921
1.111 µM	1.08	1.06	0.994	1.1	0.886
3.333 µM	1.09	1.02	0.975	1.13	0.828
10 µM	1.081	0.707	0.537	1.012	0.5622

Cn1cnc2c(F)c(Nc3ccc(Br)cc3Cl)c(C(=O)NOCCO)cc21 [Selumetinib]
relative viability
Details	HT1080 [6]	KHOS-NP [8]	RD-ES [7]	SW684 [10]	SYO-1 [9]
0.00017 µM	0.96	1.06	0.958	1.04	0.937
0.00051 µM	0.97	1.03	0.942	1.09	0.931
0.00152 µM	0.974	1.04	0.95	1.06	0.9523
0.00457 µM	0.9799	1.04	0.985	1.03	0.9263
0.01372 µM	0.927	1.01	0.973	1.03	0.8956
0.04115 µM	0.855	0.965	0.965	0.973	0.869
0.1235 µM	0.805	0.823	0.927	0.969	0.829
0.3704 µM	0.6793	0.727	0.942	0.98	0.805
1.111 µM	0.602	0.526	0.935	0.941	0.778
3.333 µM	0.491	0.351	0.933	0.84	0.733
10 µM	0.462	0.277	0.855	0.692	0.695

CO[C@H]1C[C@@H]2CC[C@@H](C)[C@@](O)(O2)C(=O)C(=O)N2CCCC[C@H]2C(=O)O[C@H]([C@H](C)C[C@@H]2CC[C@@H](OC(=O)C(C)(CO)CO)[C@H](OC)C2)CC(=O)[C@H](C)/C=C(\C)[C@@H](O)[C@@H](OC)C(=O)[C@H](C)C[C@H](C)/C=C/C=C/C=C/1C [Temsirolimus]
relative viability
Details	HT1080 [6]	KHOS-NP [8]	RD-ES [7]	SW684 [10]	SYO-1 [9]
0.00017 µM	1.02	1.05	0.908	1.06	0.884
0.00051 µM	1.01	1.05	0.865	1.04	0.877
0.00152 µM	1.05	1.03	0.771	0.956	0.878
0.00457 µM	1.01	1.044	0.745	0.919	0.83
0.01372 µM	0.95	1.05	0.687	0.799	0.798
0.04115 µM	0.918	1.036	0.656	0.711	0.749
0.1235 µM	0.936	1.04	0.625	0.752	0.687
0.3704 µM	0.929	1	0.568	0.79	0.633
1.111 µM	0.908	0.96	0.526	0.767	0.589
3.333 µM	0.8	0.907	0.435	0.767	0.544
10 µM	0.0491	0.0158	0.107	-0.00523	0.323
